From patent US20050250784A1 (Miikana Therapeutics Corporation, priority 2004, published 2005)

What was measured:
[1] = tested on: HDAC (HeLa cell nuclear extract, a mosaic of HDAC enzymes); test: In vitro fluorescent histone deacetylase assay (Biomol HDAC fluorescent activity kit); assay type: biochemical; conditions: compound concentration 100 μM; HeLa cell nuclear extract as HDAC source; substrate 50 μM, 10 min, room temperature
Procedure: Histone deacetylase (HDAC) activity assays were performed using the HDAC fluorescent activity assay/drug discovery kit (Biomol Research Laboratories, Plymouth Meeting, Pa.) essentially according to the manufacturer's instructions. The included HeLa cell nuclear extract, which contains a mosaic of HDAC enzymes and other nuclear factors, was used as the source of HDAC activity. The final substrate concentration in the assay mixture was 50 μM. The reaction was allowed to proceed for 10 min at room temperature before stopping the reaction. Test compounds were prepared as 20 mM stock solutions in DMSO (Molecular Biology grade, Sigma-Aldrich Co., St. Louis, Mo.) and stored at −70° C. Serial dilutions of test compounds were prepared in assay buffer immediately prior to testing. DMSO was determined in a separate trial to have no significant effect on the activity of this assay at concentrations up to 5%; the final DMSO concentration in the wells was no more than 2% and therefore DMSO effects were safely neglected. Assays were performed in white polystyrene 96-well half-area assay plates (Corning, Corning, N.Y.) and measured on a Wallace 1420 fluorescent plate reader (Wallac Oy, Turku, Finland) with an excitation wavelength of 355 nm, an emission wavelength of 460 nm, and a 1 sec signal averaging time.

MCF7 cells = test: Whole cell cytotoxicity assay: Sulforhodamine B; assay type: cell-based, Human; conditions: compound concentration 100 μM, MCF7 cell growth, 48 hours with drug, SRB staining
Procedure: The following procedure can be found on the Developmental Therapeutics Program NCI/NIH web site at http://dtp.nci.nih.gov/brancehes/btb/ivclsp.html.
1. Human tumor cell lines of HT29, A549 and MCF7 are grown in DMEM containing 10% fetal bovine serum and 2 mM L-glutamine. Cells are plated in a 96 well plate at a density of 5000 cells per well in 100 uL of growth medium and incubated at 37° C., 5% CO2, for 24 hours prior to the addition of experimental compounds.
2. Experimental drugs are solubilized in DMSO for a final concentration of 20 mM immediately prior to use. Drugs are further diluted in growth media for a total of nine drug concentrations and a growth control. At the 24 hour time point, one plate of cells is fixed in situ with TCA as a measurement of the cell population at time zero, or the time of drug addition.
3. The plates are further incubated with drug for an additional 48 hours.
4. The cells are fixed in situ by gently aspirating off the culture media and then adding 50 uL of ice cold 10% TCA per well and incubated at 4° C. for 60 minutes. The plates are washed with tap water five times and allowed to air dry for 5 minute.
5. 50 ul of a 0.4% (w/v) Sulforhodamine B solution in 1% (v/v) acetic acid is added per well and incubated for 30 minutes at room temperature.
6. Following staining, plates are washed five times with 1% acetic acid to remove any unbound dye and then allowed to air dry for 5 minutes.
7. Stain is solubilized with 100 uL of 10 mM Tris pH 10.5 per well and placed on an orbital rotator for 5 minutes.
8. Absorbance is read at 570 nm.

Compound	% inhibition HDAC @ 100 μM [1] [%]	other results
CN1CCN(Cc2cccc(-c3ccc(S(=O)(=O)N4CCN(c5ncc(C(=O)NO)s5)CC4)cc3)c2)CC1 [Example 284]	100	
CN(C)Cc1cccc(S(=O)(=O)N2CCN(c3ncc(C(=O)NO)s3)CC2)c1 [Example 297]	99	
O=C(NO)c1cnc(N2CCN(S(=O)(=O)c3ccc(Oc4ccccc4)nc3)CC2)s1 [Example 247, 2-[4-(2-phenoxypyridine-5-sulfonyl)-piperazin-1-yl]-thiazole-5-carboxylic acid hydroxyamide]	96	
CC(C)N(C)Cc1cccc(-c2ccc(S(=O)(=O)N3CCN(c4ncc(C(=O)NO)s4)CC3)cc2)c1 [Example 287, 2-{4-[(3′-[isopropyl(methyl)amino]methyl]-1,1′-biphenylsulfonyl]-piperazin-1-yl}-1,3-thiazole-5-carboxylic acid hydroxyamide]	99	
O=C(NO)c1cnc(N2CCN(S(=O)(=O)c3cccc(CN4CCCC4)c3)CC2)s1 [Example 298]	98	
CC(=O)Nc1ccc(-c2ccc(S(=O)(=O)N3CCN(c4ncc(C(=O)NO)s4)CC3)cc2)cc1 [Example 292]	100	
O=C(NO)c1cnc(N2CCN(S(=O)(=O)c3cccc(-c4ccccc4)c3)CC2)s1 [Example 251, 2-[4-(3-biphenylsulfonyl)piperazin-1-yl]-thiazole-5-carboxylic acid hydroxyamide]	100	
O=C(NO)c1cnc(N2CCN(S(=O)(=O)c3ccc(-c4cccc(CN5CCCCC5)c4)cc3)CC2)s1 [Example 273]	100	
O=C(NO)c1cnc(N2CCN(S(=O)(=O)CCc3ccccc3)CC2)s1 [Example 294, 2-[4-(phenethylsulfonyl)piperazin-1-yl]-thiazole-5-carboxylic acid hydroxyamide]	98	
CCCCS(=O)(=O)N1CCN(c2ncc(C(=O)NO)s2)CC1 [Example 253, 2-[4-(n-butylsulfonyl)-piperazin-1-yl]-thiazole-5-carboxylic acid hydroxyamide]	94	
O=C(NO)c1cnc(N2CCN(S(=O)(=O)c3ccc(-c4cccc(F)c4)cc3)CC2)s1 [Example 261]	95	
O=C(NO)c1cnc(N2CCN(S(=O)(=O)c3ccc(-c4ccsc4CN4CCCC4)cc3)CC2)s1 [Example 282, 2-(4-[4-{(2-(pyrrolidin-1-ylmethyl)-thien-3-yl)phenylsulfonyl}]piperazin-1-yl)-1,3-thiazole-5-carboxylic acid hydroxyamide]	99	
O=C(NO)c1cnc(N2CCN(S(=O)(=O)c3ccc(-c4ccc(CN5CCCC5)s4)cc3)CC2)s1 [Example 288]	99	
O=C(NO)c1cnc(N2CCN(S(=O)(=O)c3ccc(-c4sccc4CN4CCCC4)cc3)CC2)s1 [Example 289]	99	
O=C(NO)c1cnc(N2CCN(S(=O)(=O)c3ccc(CN4CCCC4)cc3)CC2)s1 [Example 305]	99	
O=C(NO)c1cnc(N2CCN(S(=O)(=O)c3ccc(-c4cccnc4)cc3)CC2)s1 [Example 293, 2-[4-{(3-pyrido)benzenesulfonyl}-piperazin-1-yl]-thiazole-5-carboxylic acid hydroxyamide]	100	
O=C(NO)c1cnc(N2CCN(S(=O)(=O)c3ccc(CN4CCOCC4)cc3)CC2)s1 [Example 306]	99	
O=C(NO)c1cnc(N2CCN(S(=O)(=O)c3ccc(-c4ccc5c(c4)OCO5)cc3)CC2)s1 [Example 260, 2-(4-{[4-(1,3-benzodioxol-5-yl)phenyl]sulfonyl}piperazin-1-yl)-1,3-thiazole-5-carboxylic acid hydroxyamide]	99	
Cc1cccc(Cl)c1S(=O)(=O)N1CCN(c2ncc(C(=O)NO)s2)CC1 [Example 238, 2-[4-(2-methyl-6-chlorophenylsulfonyl)-piperazin-1-yl]-thiazole-5-carboxylic acid hydroxyamide]	100	
CCN(C)Cc1cccc(-c2ccc(S(=O)(=O)N3CCN(c4ncc(C(=O)NO)s4)CC3)cc2)c1 [Example 286, 2-{4-[(3′-[ethyl(methyl)amino]methyl]-1,1′-biphenylsulfonyl]piperazin-1-yl}-1,3-thiazole-5-carboxylic acid hydroxyamide]	99	
O=C(NO)c1cnc(N2CCN(S(=O)(=O)c3cc4ccccc4s3)CC2)s1 [Example 243, 2-[4-(2-benzothiphenesulfonyl)-piperazin-1-yl]-thiazole-5-carboxylic acid hydroxyamide]	99	
O=C(NO)c1cnc(N2CCN(S(=O)(=O)c3ccc4nsnc4c3)CC2)s1 [Example 246, 2-[4-(2,1,3-benzothiadiazole-5-sulfonyl)-piperazin-1-yl]-thiazole-5-carboxylic acid hydroxyamide]	98	
O=C(NO)c1cnc(N2CCN(S(=O)(=O)c3ccc(-c4cncnc4)cc3)CC2)s1 [Example 291, 2-[4-{(4-pyrimidine)benzenesulfonyl}-piperazin-1-yl]-thiazole-5-carboxylic acid hydroxyamide]	99	
CN(C)Cc1ccc(S(=O)(=O)N2CCN(c3ncc(C(=O)NO)s3)CC2)cc1 [Example 295]	98	
CSc1nccc(-c2ccc(S(=O)(=O)N3CCN(c4ncc(C(=O)NO)s4)CC3)s2)n1 [Example 245, 2-[4-(2-{2-methylthiopyrimidine-4-yl}-5-thiophenesulfonyl)-piperazin-1-yl]-thiazole-5-carboxylic acid hydroxyamide]	95	
O=C(NO)c1cnc(N2CCN(S(=O)(=O)c3ccc(Br)s3)CC2)s1 [Example 255, 2-{4-[(5-bromothien-2-yl)sulfonyl]piperazin-1-yl}-N-hydroxy-1,3-thiazole-5-carboxamide]	29	
COc1ccc(OC)c(S(=O)(=O)N2CCN(c3ncc(C(=O)NO)s3)CC2)c1 [Example 325, 2-{4-[(2,5-dimethoxyphenyl)sulfonyl]piperazin-1-yl}-1,3-thiazole-5-carboxylic acid hydroxyamide]		inhibition at 100 µM (MCF7 cells; Homo sapiens): 98%
Cc1ccc(S(=O)(=O)N2CCN(c3ncc(C(=O)NO)s3)CC2)cc1 [Example 204, 2-[4-(4-toluene-4-sulfonyl)-piperazin-1-yl]-thiazole-5-carboxylic acid hydroxyamide]		% inhibition MCF7 cells @ 100 μM (MCF7 cells): 95.4%
